Data reported in US11470844B2, “Vespidae wasp repellent” (KINP CO., LTD, priority 2015, dated 2022).

Assays:
Vespa mandarinia worker [1] = assay: Spray on Vespa mandarinia worker collecting sawthorn oak sap; assay type: in vivo, Vespa mandarinia japonica Radoszkowski; details: 10 workers; for behavior of workers after spraying: immediately started flapping, same time or a few seconds later; for Number of worker Effective / Number of worker No response: sprayed one time, observed up to 1 minute
Protocol: The experiment was conducted on a Vespa mandarinia japonica Radoszkowski worker which flew to a sawthorn oak tree bleeding sap and which collected the sap in Kagawa Prefecture Kinbuchi Forest Park in Takamatsu City Kagawa Prefecture from June to October, 2014 and from June to July, 2015.
Specifically, 100 mL of distilled water was enclosed in a plastic sprayer having a volume of 200 mL to be used as a control sprayer, and 100 mL of benzyl alcohol was enclosed in the same material and the same volume sprayer to be used as a test liquid sprayer. First, distilled water was sprayed one time to one Vespa mandarinia worker which was collecting sap at a sap bleeding part of a trunk of a sawthorn oak tree by using a control sprayer. […] Then, benzyl alcohol was sprayed one time by using a test liquid sprayer. Next, the workers were observed up to 1 minute. With respect to 2-phenylethanol, 3-phenylpropanol, 1-phenyl-2-prpanol and benzyl acetate, the spray test to a Vespa mandarinia worker collecting a sawthorn oak sap was conducted in the same condition.

Vespa mandarinia worker [2] = assay: Black ball nest disturbance, Experiment 2 (new black ball, 30 s vibration); assay type: in vivo; details: for repellent effect: in vivo
Source text: In the above-described Experiment 1, it was observed that vibrating the black ball in contact with the nest entrance more strongly induces the attack behavior of the worker rather than vibrating the black ball in the air away from the nest. Accordingly, the attack situation of the worker was investigated by vibrating the black ball in contact with the entrance of the same Vespidae wasp nest used in the above-described Experiment 1 for 30 seconds on Oct. 31, 2014. Specifically, the attack situation of the worker was observed similarly to the above-described Experiment 1 except for using a new black ball without using the black ball on which alarm pheromone was adsorbed even in the case of the test liquid and using 2-phenylethanol or benzyl alcohol as the test liquid by vibrating the black ball in contact with the entrance of the same nest for 30 seconds.
As a result, in the case of the black ball on which distilled water was sprayed, it was difficult to count the total number of the workers which flew to and alighted on the black ball for attack, since the black ball was continued to be attacked by the workers for 150 seconds from the end of the vibration almost without interruption and the number of attacking worker was clearly larger in comparison with the case of the above-described Experiment 1. The inventors therefore counted the number of the worker which could be observed on the hemispherical surface of the black ball from the video image at intervals of 30 seconds from the end of the disturbance. In addition, a picture of the video footage 145 seconds after the end of the nest entrance disturbance is shown as FIG. 1. FIG. 1A is an image of the case where distilled water was used, FIG. 1B is an image of the case where 2-phenylethanol was used, and FIG. 1C is an image of the case where benzyl alcohol was used.

[3] = tested on: Vespa simillima xanthoptera worker; assay: Black ball nest disturbance, Experiment 2; assay type: in vivo; details: for number of worker on black ball hemispherical surface: new black ball; for repellent effect and action to suppress the aggression: in vivo
Protocol: A similar experiment to the above-described Example 2(2) was conducted against the same Vespa simillima xanthoptera nest of the above-described Experiment 1 on Oct. 31, 2014. The number of worker on the black spherical hemispherical surface counted every 30 seconds on the basis of the video image is shown in Table 5, and the picture of the video footage after 115 seconds is shown as FIG. 2. FIG. 2A is an image of the case where distilled water was used, FIG. 2B is an image of the case where 2-phenylethanol was used, and FIG. 2C is an image of the case where benzyl alcohol was used.

Apis mellifera worker = details: in vivo
Protocol: The experiment involving a Apis mellifera worker which was sucking nectar from a flower of Abelia planted at a bank of Noda pond located at Fuseishi-cho, Takamatsu City, Kagawa Prefecture was conducted on Jul. 22 to 24, 2015.
With respect to the experimental condition, first, distilled water was sprayed once on the worker which was sucking nectar or moving from a flower to a flower by using a sprayer, and then the inventors observed the behavior for 30 seconds. Next, benzyl alcohol, 2-phenylethanol or benzyl acetate was sprayed once on the same worker by using the sprayer having the same mass and the same volume, and then the inventors observed the behavior up to 30 seconds. The test liquid was judged to be “effective” in the case where the Apis mellifera worker on which the test liquid was sprayed did different action than normal activity to visit a flower during the observation time.

[4] = tested on: P. chinensis antennalis Pe'rez worker group; assay: Spray on worker group on nest; assay type: in vivo; details: 9:02, 1 minute after spraying benzyl alcohol; 32 workers before
Protocol: The experiment involving a worker group of Polistes jokahamae jokahamae Radoszkowski on the exterior wall of a nest found in the campus of Faculty of Agriculture, Kochi University, located on 200 Otsu, Monobe, Nankoku City, Kochi Prefecture, was conducted on Jul. 13, 2015, and the experiment involving a worker of P. jokahamae jokahamae Radoszkowski which collected sap bled from sucking mark by adult Cryptotympana facialis of Zelkova tree stem planted in a private house in Fuseishi-cho, Takamatsu City, Kagawa Prefecture was conducted on July 19 to 22, 2015. In addition, the experiment involving a worker group of P. chinensis antennalis Pe'rez on the exterior wall of a nest found on a branch of a cheesewood planted at a bank of Noda pond located at Fuseishi-cho, Takamatsu City, Kagawa Prefecture was conducted on Jul. 30, 2015.
The experiment was conducted in accordance with the above-described Example 1(1) involving a Vespa mandarinia worker, distilled water as a control example spray and benzyl alcohol as a test liquid example spray were sequentially sprayed on a test object group or a test object worker by using a sprayer, and the behavior from immediately after spraying up to 1 minute later was respectively recorded. […]

SMILES	behavior of workers after spraying (Vespa mandarinia worker [1])	Number of worker Effective (Vespa mandarinia worker [1])	Number of worker No response (Vespa mandarinia worker [1])	number of worker on hemispherical surface of black ball (Vespa mandarinia worker [2]; 30 s after disturbance)	number of worker on hemispherical surface of black ball (Vespa mandarinia worker [2]; 60 s after disturbance)	number of worker on hemispherical surface of black ball (Vespa mandarinia worker [2]; 90 s after disturbance)	number of worker on hemispherical surface of black ball (Vespa mandarinia worker [2]; 120 s after disturbance)	number of worker on hemispherical surface of black ball (Vespa mandarinia worker [2]; 150 s after disturbance)	repellent effect (Vespa mandarinia worker [2])	number of worker on black ball hemispherical surface ([3]; 30 s after disturbance)	number of worker on black ball hemispherical surface ([3]; 60 s after disturbance)	number of worker on black ball hemispherical surface ([3]; 90 s after disturbance)	number of worker on black ball hemispherical surface ([3]; 120 s after disturbance)	number of worker on black ball hemispherical surface ([3]; 150 s after disturbance)	repellent effect and action to suppress the aggression [3]	Number of worker Effective (Apis mellifera worker)	Number of worker No response (Apis mellifera worker)	Number of P. chinensis antennalis Pe'rez on nest [4]	effect on behavior of / harm to honeybee (Apis mellifera worker)
OCCc1ccccc1 [2-Phenylethanol, 2-phenylethanol]	flew away from the sap bleeding part	10/10	0/10	0	0	0	0	0	very strong	1	0	0	0	0	strong equivalent to or higher than the repellent effect on Vespa mandarinia	0/10	10/10		
OCc1ccccc1 [Benzyl alcohol, benzyl alcohol]	flew away from the sap bleeding part	10/10	0/10	0	0	0	0	0	very strong	0	0	0	0	0	strong equivalent to or higher than the repellent effect on Vespa mandarinia	0/10	10/10	0	does not effect on the behavior of an Apis mellifera worker
